Where two headings read alike, the source gives them in different places.
How the values were obtained:
[1] = target: T1, human FLT3 protein (FLT3 (WT)) (Homo sapiens, UniProt P36888); test: FLT3 inhibition test (FLT3 enzyme inhibition, time-resolved fluorescence of substrate peptide phosphorylation); format: biochemical; conditions: read-out: FLT3 (WT) enzyme inhibition activity
T1 construct: human FLT3 protein (intracellular region, 564 to 993 aa); GST; purchased Carna Biosciences; host or cells: baculovirus expression system
T1 sequence (P36888 564-993): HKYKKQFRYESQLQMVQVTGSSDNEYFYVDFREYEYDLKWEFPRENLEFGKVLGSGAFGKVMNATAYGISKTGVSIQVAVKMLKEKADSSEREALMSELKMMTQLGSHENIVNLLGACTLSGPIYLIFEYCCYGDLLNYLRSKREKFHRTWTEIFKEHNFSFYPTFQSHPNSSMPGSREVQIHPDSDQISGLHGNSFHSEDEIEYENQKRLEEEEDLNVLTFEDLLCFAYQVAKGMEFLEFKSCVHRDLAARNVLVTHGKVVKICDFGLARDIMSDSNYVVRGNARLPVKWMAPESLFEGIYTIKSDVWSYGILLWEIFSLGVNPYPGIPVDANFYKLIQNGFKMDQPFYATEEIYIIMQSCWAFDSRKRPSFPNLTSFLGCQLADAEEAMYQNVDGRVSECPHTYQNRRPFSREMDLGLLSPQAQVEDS
In short: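 Wild-type human FLT3 (1.2 μg) pre-incubated with compound 15 min at 25° C in 100 mM HEPES pH 7.5, 10 mM MgCl2, 25 mM NaCl, 1 mM DTT. Reaction started with substrate peptide and ATP (final 50 μM), run 30 min at 25° C; phosphorylation read by time-resolved fluorescence.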

MV4-11 cells = test: Leukemia cell proliferation inhibition test (ATPlite), MV4-11; format: cell-based; conditions: Homo sapiens, read-out: MV4-11 cell proliferation inhibition effect
In short: (§1)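 Luminescent ATP read-out (firefly luciferase) used as a total cell count after 72 h compound exposure at 37° C, 5% CO2. Cells: 10,000/well in RPMI + 10% FBS. GI50 = 50% inhibition relative to 0.1% DMSO, from a sigmoid dose-response fit; duplicates.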

Molm-13 cells = test: Leukemia cell proliferation inhibition test (ATPlite), Molm-13; format: cell-based; conditions: Homo sapiens, read-out: MOLM13 cell proliferation inhibition effect
In short: as §1

[2] = GST-fused human FLT3 (564 to 993 aa), ATP 50 μM
[3] = MV4-11, 72 h, MV4-11, 72 hours culture, ATPlite, GI50 per method
[4] = MOLM-13, 72 h, Molm-13, 72 hours culture, ATPlite, GI50 per method

Row | SMILES | IC50 [1, 2] [nM] | IC50 (MV4-11 cells; [3]) [nM] | IC50 (Molm-13 cells; [4]) [nM] | IC50 ([1]; FLT3 (WT)) [nM] | IC50 (MV4-11 cells; MV4-11, MV4-11 cell) [nM] | IC50 (Molm-13 cells; MOLM-13, MOLM13 cell) [nM]
1 | CCCNc1nc(NCCc2ccncc2)ncc1C(=O)Nc1ccc(OC)c(NC(=O)CN(C)C(=O)/C=C/CN(C)C)c1 [Compound 1-10] | < 10 | < 10 | < 10 |  |  | 
2 | C[C@@H](C(=O)NCCCC#Cc1cnc(Nc2cccc(F)c2)nc1NCC1CC1)N(C)C(=O)/C=C/CN(C)C [Compound 21-4] | < 10 | < 10 | 10 to 100 |  |  | 
3 | CCCNc1nc(Nc2ccc(C(N)=O)cc2)ncc1C(=O)NCCCNC(=O)CN(C)C(=O)/C=C/CN(C)C [Compound 5-5] | < 10 | 10 to 100 | 10 to 100 |  |  | 
4 | CCCNc1nc(Nc2ccc(F)nc2)ncc1C#C[C@@H]1CCC[C@H](NC(=O)[C@H](C)N(C)C(=O)/C=C/CN(C)C)C1 [Compound 13-5] | < 10 | < 10 | < 10 |  |  | 
5 | CNc1nc(Nc2cccc(F)c2)ncc1C#CCCCNC(=O)[C@@H]1C[C@H](OC)CN1C(=O)/C=C/CN(C)C [Compound 7-73, (2S,4S)-1-((E)-4-(Dimethylamino)-2-butenoyl)-N-(5-(2-((3-fluorophenyl)amino)-4-(methylamino)pyrimidin-5-yl)-4-pentyn-1-yl)-4-methoxypyrrolidine-2-carboxamide] | < 10 | < 10 | < 10 |  |  | 
6 | CNc1nc(Nc2ccc(F)cc2)ncc1C#CCCCNC(=O)[C@@H]1C[C@H](F)CN1C(=O)/C=C/CN(C)C [Compound 7-80, (2S,4S)-1-((E)-4-(Dimethylamino)-2-butenoyl)-4-fluoro-N-(5-(2-((4-fluorophenyl)amino)-4-(methylamino)pyrimidin-5-yl)-4-pentyn-1-yl)pyrrolidine-2-carboxamide] | < 10 | < 10 | < 10 |  |  | 
7 | CN(C)C/C=C/C(=O)N(C)CC(=O)NCCCC#Cc1cnc(Nc2ccc(F)nc2)nc1NCC(F)(F)F [Compound 10-36] | < 10 | < 10 | < 10 |  |  | 
8 | CCCNc1nc(Nc2ccc3c(c2)c(OC)nn3CCOC)ncc1C#CCCCNC(=O)[C@H](C)N(C)C(=O)/C=C/CN(C)C [Compound 22-14] |  |  |  | < 10 | < 10 | < 10
9 | CNc1nc(Nc2ccc3c(cnn3C)c2)ncc1C#CCCCNC(=O)[C@H](C)N(C)C(=O)/C=C/CN(C)C [Compound 10-52] | < 10 | < 10 | < 10 |  |  | 
10 | CCCNc1nc(Nc2ccc3c(OC)nn(CCOC)c3c2)ncc1C#CCCCNC(=O)[C@@H]1CCCN1C(=O)/C=C/CN(C)C [Compound 22-55] |  |  |  | < 10 | < 10 | < 10
11 | C[C@@H](C(=O)N[C@H]1CCC[C@@H](C#Cc2cnc(Nc3ccc(C#N)cc3)nc2N2CCOCC2)C1)N(C)C(=O)/C=C/CN(C)C [Compound 14-5] | < 10 | < 10 | < 10 |  |  | 
12 | CCCNc1nc(Nc2cnc(C)c(C)c2)ncc1C#CCCCNC(=O)[C@H](C)N(C)C(=O)/C=C/CN(C)C [Compound 21-18] | 10 to 100 | 10 to 100 | 10 to 100 |  |  | 
13 | CCCN(C)c1nc(Nc2ccc(C(=O)NC)cc2)ncc1C#CCCCNC(=O)[C@H](C)N(C)C(=O)/C=C/CN(C)C [Compound 9-9] | < 10 | < 10 | < 10 |  |  | 
14 | CCCNc1nc(Nc2ccc(C#N)cc2)ncc1C#CCCCNC(=O)[C@H]([C@@H](C)O)N(C)C(=O)/C=C/CN(C)C [Compound 7-63] | < 10 | < 10 | < 10 |  |  | 
15 | CNc1nc(Nc2cccc(C#N)c2)ncc1C#CCCCNC(=O)[C@@H]1CCCN1C(=O)/C=C/CN(C)C [Compound 7-76] | < 10 | < 10 | < 10 |  |  | 
16 | CCCNc1nc(Nc2ccc3[nH]nc(OC)c3c2)ncc1C#CCCCNC(=O)[C@@H]1CCCN1C(=O)/C=C/CN(C)C [Compound 22-67] |  |  |  | < 10 | < 10 | < 10
17 | CNc1nc(Nc2ccc3c(c2)c(F)nn3C)ncc1C#CCCCNC(=O)[C@H](C)N(C)C(=O)/C=C/CN(C)C [Compound 21-49] |  |  |  | 10 to 100 | < 10 | < 10
18 | C[C@@H](C(=O)NCCCC#Cc1cnc(Nc2ccc(C#N)cc2)nc1-n1nccn1)N(C)C(=O)/C=C/CN(C)C [Compound 20-3] | 10 to 100 | < 10 | < 10 |  |  | 
19 | CCCNc1nc(Nc2cccc(F)c2)ncc1C#CCCCNC(=O)[C@H](CC)N(C)C(=O)/C=C/CN(C)C [Compound 7-17] | < 10 | < 10 | < 10 |  |  | 

Continued, values first:

Row | IC50 [1, 2] [nM] | IC50 (MV4-11 cells; [3]) [nM] | IC50 (Molm-13 cells; [4]) [nM] | IC50 ([1]; FLT3 (WT)) [nM] | IC50 (MV4-11 cells; MV4-11, MV4-11 cell) [nM] | IC50 (Molm-13 cells; MOLM-13, MOLM13 cell) [nM] | SMILES
20 | < 10 | < 10 | < 10 |  |  |  | COc1ccc(Nc2ncc(C#C[C@H]3C[C@@H](NC(=O)[C@H](C)N(C)C(=O)/C=C/CN(C)C)C3)c(NC3CC3)n2)cc1F (relative stereo) [Compound 15-10, (E)-N—((S)-1-(((1S*,3R*)-3-((4-(Cyclopropylamino)-2-((3-fluoro-4-methoxyphenyl)amino)pyrimidin-5-yl)ethynyl)cyclobutyl)amino)-1-oxopropan-2-yl)-4-(dimethylamino)-N-methyl-2-butenamide]
21 | < 10 | < 10 | < 10 |  |  |  | CCCNc1nc(Nc2cccc(F)c2)ncc1C#CCCCNC(=O)[C@H](C)N(C)C(=O)/C=C/CN(C)C [Compound 7-1, (S,E)-4-(dimethylamino)-N-(1-((5-(2-((3-fluorophenyl)amino)-4-(propylamino)pyrimidin-5-yl)-4-pentyn-1-yl)amino)-1-oxopropan-2-yl)-N-methyl-2-butenamide]
22 | < 10 | 10 to 100 | 10 to 100 |  |  |  | CCCNc1nc(Nc2ccc(C(N)=O)cc2)ncc1C(=O)Nc1cccc(NC(=O)[C@H](C)N(C)C(=O)/C=C/CNCC(F)(F)F)c1 [Compound 4-13]
23 | 10 to 100 | > 1000 | > 1000 |  |  |  | CCCNc1nc(Nc2ccc(C#N)cc2)ncc1/C=C\CNC(=O)CCNC(=O)/C=C/CN(C)C [Compound 7-95]
24 | < 10 | 10 to 100 | 10 to 100 |  |  |  | CCCNc1nc(Nc2ccc(C#N)cc2)ncc1C#CCCC(=O)NCCN(C)C(=O)/C=C/CN(C)C [Compound 8-22]
25 |  |  |  | < 10 | < 10 | < 10 | CCCNc1nc(Nc2ccc3c(c2)c(F)nn3C)ncc1C#CCCCNC(=O)[C@H](C)N(C)C(=O)/C=C/CN(C)C [Compound 22-60]
26 | < 10 | 10 to 100 | 10 to 100 |  |  |  | CCCNc1nc(Nc2ccc(C(N)=O)cc2)ncc1C(=O)NCCCNc1ncccc1NC(=O)/C=C/CN(C)C [Compound 3-29]
27 | < 10 | 10 to 100 | 10 to 100 |  |  |  | CCCNc1nc(NCCc2ccncc2)ncc1C(=O)NCCC(CC)NC(=O)CNC(=O)/C=C/CN(C)C (stereo not drawn) [Compound 1-11]
28 | < 10 | 10 to 100 | 10 to 100 |  |  |  | CNc1nc(Nc2cccc(F)c2)ncc1C#Cc1cccc(NC(=O)CN(C)C(=O)/C=C/CN(C)C)c1 [Compound 8-23]
29 |  |  |  | < 10 | < 10 | < 10 | CCCNc1nc(Nc2cnc3[nH]nc(C)c3c2)ncc1C#CCCCNC(=O)[C@@H]1CCCN1C(=O)/C=C/CN(C)C [Compound 22-56, (S,E)-1-(4-(Dimethylamino)-2-butenoyl)-N-(5-(2-((3-methyl-1H-pyrazolo[3,4-b]pyridin-5-yl)amino)-4-(propylamino)pyrimidin-5-yl)-4-pentyn-1-yl)pyrrolidine-2-carboxamide]

Reference: patent US9145415B2, “Nitrogen-containing heterocyclic compound or salt thereof” (FUJIFILM Corporation, priority 2012, dated 2015)
